Results as given in patent US4440786A, “Compounds with antiinflammatory and analgesic activity, process for the preparation thereof and pharmaceutical compositio ns therefrom” (Ausonia Farmaceutici s.r.l., priority 1981, dated 1984).
Entries after “also recorded” stand apart in the source; their conditions may differ. Like-named read-outs stand apart in the source and are kept apart here.

How the values were obtained:
[1] = Contorsions caused by phenylquinone (analgesic activity); assay type: in vivo; details: mice, oral; phenylquinone 30 min after; acetylsalicylic acid 250, ibuprofen 100, paracetamol 100, diflunisal 25, MR 713 25 mg/kg
Source text: The analgesic activity has been tested in mice using the contorsion test caused by phenylquinone. […] Phenylquinone has been administered thirty minutes after the substance under test and the results obtained are reported in Table II.
Contorsions Caused by Phenylquinone in Mice

[2] = Subplantar edema caused by carrageenan (antiinflammatory activity); assay type: in vivo; design: Volume of Paw in No. of Hours after the Treatment: 0 / Volume of Paw in No. of Hours after the Treatment: 1 / Volume of Paw in No. of Hours after the Treatment: 2 / Volume of Paw in No. of Hours after the Treatment: 3 / Volume of Paw in No. of Hours after the Treatment: 4 / Volume of Paw in No. of Hours after the Treatment: 5: dose or concentration left out as unconfirmed; details: rats, oral; for AREA % Inhibition vs. Control / AREA Absolute Value: paw volume 0-5 h, acetylsalicylic acid 250, ibuprofen 100, paracetamol 100, diflunisal 25, MR 713 25 mg/kg
Source text: The experiments have been carried out with rats and carrageenan has been used as the agent causing edema.
Subplantar Edema Caused by Carrageenan in Rats

[3] = Plasmatic levels half-life, oral; assay type: in vivo; details: rats, at equal dose
Experimental: The pharmacodynamic tests carried out in rats and administering MR 713 by the oral route in the doses of 25, 50, and 100 mg/kg, show a half-life time of plasmatic levels, which is possible to calculate in the dose of 25 mg/kg, of about eleven hours. […] The pharmacodynamic tests permit to administer one or at the most two daily doses of MR 713.

Solubility = assay type: physicochemical
Acute toxicity, oral = assay type: in vivo; details: mice
[4] = rats fasted 18 h, oral, 6 h, MR 713 25 mg/kg

SMILES | Average Size of Ulcer in mm (rat, in vivo, po, 25 mg/kg) [mm] | gastric lesions / gastric tolerability [4] | % Inhibition vs. Controls (contorsions) [1] [%] | Average No. of Contorsions [1] | No. of Animals with Contorsions [1] | AREA % Inhibition vs. Control [2] [%] | AREA Absolute Value [2] | also measured
CC(C)Cc1ccc(C(C)C(=O)O)cc1 (stereo not shown) [Ibuprofen, ibuprofen] | 2.3 ± 0.7 | cause gastric lesions | 99.1 | 0.2 ± 0.1 | 2/10 | 40.0 | 163.7 | –
O=C(O)COc1ccc(-c2ccc(F)cc2F)cc1 [MR 713, (2',4'-difluoro-4-biphenyl)oxyacetic acid] | 0.3 ± 0.1 | – | 54.0 | 10.8 ± 2.8 | 9/10 | 31.0 | 186.4 | half-life time of plasmatic levels, compared with other drugs [3]: substantially superior to the action of diflunisal; solubility in chlorinated hydrocarbons (Solubility; chlorinated hydrocarbons): insoluble; solubility in hot lower alcohols (Solubility; hot lower alcohols): soluble; solubility in water (Solubility; water): essentially insoluble; gastric lesions / gastric tolerability (rat, in vivo, po, 25 mg/kg): causes even less gastric lesions as compared with drugs which are well-known to be tolerated at the gastric level, such as paracetamol and diflunisal; acute toxicity (Acute toxicity, oral): very low acute toxicity; LD50 (Acute toxicity, oral; mouse, in vivo, body weight, read-out: DL50 (the source's name)): 790 mg/kg; antiinflammatory activity compared with reference drugs ([2]; MR 713 25 mg/kg, vs diflunisal same dose, paracetamol and ibuprofen four times larger dose, acetylsalicylic acid ten times larger dose, 25 mg/kg): essentially the same as diflunisal; also recorded: substantially superior to paracetamol even when the latter is used in doses four times larger; also recorded: lower than that of ibuprofen; also recorded: essentially equivalent to the activity of acetylsalicylic acid
CC(=O)Nc1ccc(O)cc1 [Paracetamol, p-acetylaminophenol] | 0.6 ± 0.4 | – | 63.4 | 8.6 ± 3.3 | 5/10 | 10.0 | 245.7 | –
CC(=O)Oc1ccccc1C(=O)O [acetylsalicylic acid, acetyl salicylic acid] | 3.7 ± 0.8 | cause gastric lesions | 100 | 0 | 0/10 | 33.0 | 182.4 | –
O=C(O)c1cc(-c2ccc(F)cc2F)ccc1O [Diflunisal, diflunisal] | 0.7 ± 0.4 | – | 99.1 | 0.2 ± 0.2 | 1/9 | 30.0 | 190.7 | Volume of Paw in No. of Hours after the Treatment: 0 ([2]; 0 h): 21.2; Volume of Paw in No. of Hours after the Treatment: 1 ([2]; 1 h): 25.6; Volume of Paw in No. of Hours after the Treatment: 2 ([2]; 2 h): 29.7; Volume of Paw in No. of Hours after the Treatment: 3 ([2]; 3 h): 31.0; Volume of Paw in No. of Hours after the Treatment: 4 ([2]; 4 h): 33.4; Volume of Paw in No. of Hours after the Treatment: 5 ([2]; 5 h): 33.1
